Earlier results, collected in patent publication US20150182489A1, “GOLD (III) COMPOUNDS AND USE FOR TREATING CANCER” (King Abdulaziz City for Science and Technology, priority 2013, published 2015).
Like-named read-outs stand apart in the source and are kept apart here.

SMILES | renal histopathology (rats; rats, 0.4 mg/kg intraperitoneally for 8 weeks (Ravindra et al)) | renal histopathology (rats; rats, 15 mg/kg of body weight intraperitoneally (Hanigan et al)) | renal histopathology (rats; single intraperitoneal dose of 7.5 mg/kg (Atasayara et al)) | hepatic histopathology (rats liver; 10 mg/kg (Avci et al)) | hepatic histopathology (rats liver; single intraperitoneal 6.5 mg/kg dose (Kart et al)) | hepatotoxicity relative to 5-FU treatment (rats liver; rats liver (El-Sayyad et al))
N.N.[Cl][Pt][Cl] [cisplatin, cis-diamminedichloroplatinum(II)] | marked proximal tubular dilation and desquamation along with acute tubular necrosis | grade 4 tubular necrosis | remarkable epithelial vacuolation, necrosis, and desquamation of cells with protein casts in renal tubules | sinusoidal congestion, hydropic and vacuolar degeneration, extensive disorganization in hepatocytes, and significant fibrosis around central venules and expanded periportal areas | moderate to severe hydropic degeneration in centrilobular zones extending towards the portal region | 
COc1cccc2c1C(=O)c1c(O)c3c(c(O)c1C2=O)C[C@@](O)(C(=O)CO)C[C@@H]3O[C@H]1C[C@H](N)[C@H](O)[C@H](C)O1 [doxorubicin] |  |  |  |  |  | increased hepatoxicity in comparison to 5-FU treatment
